Results taken from patent US20240158446A1, “CYCLIC COMPOUND HAVING SELECTIVE INHIBITORY ACTION ON KRAS OVER HRAS AND NRAS” (CHUGAI SEIYAKU KABUSHIKI KAISHA, priority 2021, published 2024).
*1 amine or outer side, *2 acyl side, *3 side chain or, on linkers, in order; H or OH if unused. Where a SMILES comes first, the peptide text is derived from it. Bridges are numbered along the chain shown (N, C = ends). [ ]: non-standard residue; d: D form. The star is where a group is joined. hPhe(3-Cl-4-CF3) = N[C@@H](CCc1ccc(C(F)(F)F)c(Cl)c1)C(=O)O; X46 = CCCCN([C@@H](Cc1ccc(C)cc1)C(=O)[*:2])[*:1]; NEtPhe(4-Me) = CCN[C@@H](Cc1ccc(C)cc1)C(=O)O; NMeGly(cPent) = CN[C@H](C(=O)O)C1CCCC1; Hyp = O=C(O)[C@@H]1C[C@@H](O)CN1; NMeD = CN[C@@H](CC(=O)O)C(=O)O; NMeL = CN[C@@H](CC(C)C)C(=O)O; Morpholide = C1CN(*)CCO1; NMeA = CN[C@@H](C)C(=O)O; Ac5c = NC1(C(=O)O)CCCC1; Aze = O=C(O)[C@@H]1CCN1; X51 = C1CCC(*)OC1; Sar = CNCC(=O)O

What was measured:
[1] = target: GDP-bound NRAS wild-type protein (Homo sapiens, UniProt P01111); experiment: Binding to NRAS by surface plasmon resonance (SPR), Single Cycle Kinetics; conditions: for NRAS/KRAS (ratio of KD value with respect to GDP-bound NRAS wild-type protein to KD value with respect to KRAS): SPR KD ratio NRAS/KRAS, class symbols; for NRAS/KRAS (ratio of KD value with respect to NRAS to KD value with respect to KRAS) / NRAS/KRAS (ratio of KD value for NRAS to KD value for KRAS): SPR, GDP-bound NRAS wild-type protein vs GDP-bound KRAS wild-type protein
[2] = target: GDP-bound HRAS wild-type protein (Homo sapiens, UniProt P01112); experiment: Binding to HRAS by surface plasmon resonance (SPR), Single Cycle Kinetics; conditions: for HRAS/KRAS (ratio of KD value with respect to GDP-bound HRAS wild-type protein to KD value with respect to KRAS): SPR KD ratio HRAS/KRAS, class symbols; for HRAS/KRAS (ratio of KD value with respect to HRAS to KD value with respect to KRAS) / HRAS/KRAS (ratio of KD value for HRAS to KD value for KRAS): SPR, GDP-bound HRAS wild-type protein vs GDP-bound KRAS wild-type protein
Chain of GDP-bound HRAS wild-type protein (P01112 whole entry): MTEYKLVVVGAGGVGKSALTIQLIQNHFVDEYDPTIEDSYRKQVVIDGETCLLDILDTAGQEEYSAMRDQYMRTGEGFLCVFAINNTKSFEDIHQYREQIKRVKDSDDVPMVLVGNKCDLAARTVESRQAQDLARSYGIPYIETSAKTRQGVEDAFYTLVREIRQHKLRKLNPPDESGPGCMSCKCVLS

Chain of GDP-bound NRAS wild-type protein (P01111 whole entry): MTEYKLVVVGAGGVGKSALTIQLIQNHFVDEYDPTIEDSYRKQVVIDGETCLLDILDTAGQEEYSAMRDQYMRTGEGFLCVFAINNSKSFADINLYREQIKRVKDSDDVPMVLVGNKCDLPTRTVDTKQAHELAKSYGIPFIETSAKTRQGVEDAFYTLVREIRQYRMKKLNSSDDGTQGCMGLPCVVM

Row | Structure (SMILES) | NRAS/KRAS (ratio of KD value for NRAS to KD value for KRAS) [1] | HRAS/KRAS (ratio of KD value for HRAS to KD value for KRAS) [2] | also measured
1 | CCO[C@@H]1C[C@H]2C(=O)NC3(CC(C)(C)C3)C(=O)N(C)[C@@H](C(CC)CC)C(=O)N(C)[C@H](C(=O)N(C)C)CC(=O)N(C)[C@H]3CC/C=C/c4ccc(cc4)C[C@@H](C(=O)N(C)CC(=O)N[C@@H](CCc4ccc(Cl)c(Cl)c4)C(=O)N2C1)N1CC/C=C\C[C@@H](C1=O)N(C)C(=O)CN(C)C(=O)[C@H]([C@@H](C)CC)NC3=O [PP2589] |  |  | NRAS/KRAS (ratio of KD value with respect to GDP-bound NRAS wild-type protein to KD value with respect to KRAS) [1]: AA (a compound having 20 or more is denoted as AA); HRAS/KRAS (ratio of KD value with respect to GDP-bound HRAS wild-type protein to KD value with respect to KRAS) [2]: A (a compound having 10 or more and less than 20 is denoted as A)
2 | CCC[C@H]1C(=O)N[C@@H]([C@@H](C)CC)C(=O)N(C)CC(=O)N(C)[C@H]2C/C=C\CCN(C2=O)[C@@H](Cc2ccc(C(F)(F)F)cc2)C(=O)N(C)CC(=O)N[C@@H](CCc2ccc(C3CC3)c(OC)c2)C(=O)N2C[C@H](OCC)C[C@H]2C(=O)NC2(CC(C)(C)C2)C(=O)N(C)[C@@H](C2CCCC2)C(=O)N(C)[C@H](C(=O)N(C)C)CC(=O)N1C [PP2853] |  |  | NRAS/KRAS (ratio of KD value with respect to GDP-bound NRAS wild-type protein to KD value with respect to KRAS) [1]: A (a compound having 10 or more and less than 20 is denoted as A); HRAS/KRAS (ratio of KD value with respect to GDP-bound HRAS wild-type protein to KD value with respect to KRAS) [2]: A (a compound having 10 or more and less than 20 is denoted as A)
3 | CCO[C@@H]1C[C@H]2C(=O)NC3(CCC3)C(=O)N(C)[C@@H](C3CCCC3)C(=O)N(CCC3CCC3)[C@H](C(=O)N3CCOCC3)CC(=O)N(C)[C@@H](CC(C)C)C(=O)N[C@@H]([C@@H](C)CC)C(=O)N(C)CC(=O)N(C)[C@H]3CCCCCN(C3=O)[C@@H](Cc3ccc(C(F)(F)F)cc3)C(=O)N(C)CC(=O)N[C@@H](CCc3cc(F)c(C(F)(F)F)c(F)c3)C(=O)N2C1 [PP0640] |  |  | NRAS/KRAS (ratio of KD value with respect to NRAS to KD value with respect to KRAS) [1]: B (a compound having 3 or more and less than 10 is denoted as B); HRAS/KRAS (ratio of KD value with respect to HRAS to KD value with respect to KRAS) [2]: B (a compound having 3 or more and less than 10 is denoted as B)
4 | CC[C@@H]1C[C@H]2C(=O)NC3(CCCC3)C(=O)N(C)[C@@H](C3CCCC3)C(=O)N(C)[C@H](C(=O)N(C)C)CC(=O)N(C)[C@@H](CC(C)C)C(=O)N[C@@H]([C@@H](C)CC)C(=O)N(C)CC(=O)N(C)[C@H]3C/C=C\CCN(C3=O)[C@@H](Cc3ccc(C)cc3)C(=O)N(C)CC(=O)N[C@@H](CCc3cc(F)c(C(F)(F)F)c(F)c3)C(=O)N2C1 [PP2191] | A (a compound having 10 or more and less than 20 is denoted as A) | B (a compound having 3 or more and less than 10 is denoted as B) | 
5 | CCCCN1C(=O)[C@@H]2CCN2C(=O)[C@H](C)N(C)C(=O)[C@H]([C@@H](C)CC)NC(=O)[C@H](CC(C)C)N(C)C(=O)C[C@@H](C(=O)N2CCOCC2)N(C)C(=O)[C@H](C2CCCC2)N(C)C(=O)C2(CCCC2)NC(=O)[C@@H]2CCCN2C(=O)[C@H](CCc2ccc(C(F)(F)F)c(Cl)c2)NC(=O)CN(C)C(=O)[C@@H]1Cc1ccc(C)cc1 [PP0055] ([NMeL]I[NMeA][Aze][X46][Sar][hPhe(3-Cl-4-CF3)]P[Ac5c][NMeGly(cPent)][NMeD]-Morpholide; lactam N-11) | C (A compound having a KD ratio of 0.1 or more and less than 3 is denoted as C) | C (A compound having a KD ratio of 0.1 or more and less than 3 is denoted as C) | 
6 | CCO[C@@H]1C[C@H]2C(=O)NC3(CCC3)C(=O)N(C)[C@@H](C3CCCC3)C(=O)N(C)[C@H](C(=O)N(C)C)CC(=O)N(C)[C@@H](CC(C)C)C(=O)N[C@@H]([C@@H](C)CC)C(=O)N(C)CC(=O)N(C)[C@H]3CCCCCN(C3=O)[C@@H](Cc3ccc(F)cc3)C(=O)N(C)CC(=O)N[C@@H](CCc3ccc(C(F)(F)F)c(Cl)c3)C(=O)N2C1 [PP0972] | B (a compound having 3 or more and less than 10 is denoted as B) | B (a compound having 3 or more and less than 10 is denoted as B) | 
7 | CCC[C@H]1C(=O)N[C@@H]([C@@H](C)CC)C(=O)N(C)CC(=O)N(C)[C@H]2C/C=C\CCN(C2=O)[C@@H](Cc2ccc(C)cc2)C(=O)N(C)CC(=O)N[C@@H](CCc2ccc(C(F)(F)F)c(Cl)c2)C(=O)N2C[C@H](C)C[C@H]2C(=O)NC2(CC(C)(C)C2)C(=O)N(C)[C@@H](C2CCCC2)C(=O)N(C)[C@H](C(=O)N(C)C)CC(=O)N1C [PP2210] | A (a compound having 10 or more and less than 20 is denoted as A) | B (a compound having 3 or more and less than 10 is denoted as B) | 
8 | CCO[C@@H]1C[C@H]2C(=O)NC3(CC(C)(C)C3)C(=O)N(C)[C@@H](C(CC)CC)C(=O)N(C)[C@H](C(=O)N(C)C)CC(=O)N(C)[C@@H](CC(C)C)C(=O)N[C@@H]([C@@H](C)CC)C(=O)N(C)CC(=O)N(C)[C@H]3C/C=C\CCN(C3=O)[C@@H](Cc3ccc(C)cc3)C(=O)N(C)CC(=O)N[C@@H](CCc3ccc(C(F)(F)F)c(Cl)c3)C(=O)N2C1 [PP2148] | A (a compound having 10 or more and less than 20 is denoted as A) | A (a compound having 10 or more and less than 20 is denoted as A) | 
9 | CCCN1C(=O)CN(C)C(=O)CN(C)C(=O)[C@H]([C@@H](C)CC)NC(=O)[C@@H]2CCCCCCC[C@@](C)(NC(=O)[C@@H]3C[C@@H](OCC)CN3C(=O)[C@H](CCc3cc(F)c(C(F)(F)F)c(F)c3)NC(=O)CN(C)C(=O)[C@@H]1Cc1ccc(C(F)(F)F)cc1)C(=O)N(C)[C@@H](C1CCCC1)C(=O)N(C)[C@H](C(=O)N1CCOCC1)CC(=O)N2C (stereo in doubt) [PP0898] | B (a compound having 3 or more and less than 10 is denoted as B) | B (a compound having 3 or more and less than 10 is denoted as B) | 
10 | CCC[C@H]1C(=O)N[C@@H]([C@@H](C)CC)C(=O)N(C)CC(=O)N(C)[C@H]2C/C=C\CCN(C2=O)[C@@H](Cc2ccc(C(F)(F)F)cc2)C(=O)N(C)CC(=O)N[C@@H](CCc2ccc(C(F)(F)F)c(CC)c2)C(=O)N2C[C@H](OCC)C[C@H]2C(=O)NC2(CC(C)(C)C2)C(=O)N(C)[C@@H](C2CCCC2)C(=O)N(C)[C@H](C(=O)N(C)C)CC(=O)N1C [PP2861] |  |  | NRAS/KRAS (ratio of KD value with respect to GDP-bound NRAS wild-type protein to KD value with respect to KRAS) [1]: A (a compound having 10 or more and less than 20 is denoted as A); HRAS/KRAS (ratio of KD value with respect to GDP-bound HRAS wild-type protein to KD value with respect to KRAS) [2]: B (a compound having 3 or more and less than 10 is denoted as B)
11 | CCCN1C(=O)[C@H](C2CCCC2)N(C)C(=O)C2(CCC2)NC(=O)[C@@H]2C[C@@H](OCC)CN2C(=O)[C@H](CCc2cc(F)c(C(F)(F)F)c(F)c2)NC(=O)CN(C)C(=O)[C@H](Cc2ccc(C(F)(F)F)cc2)N2CCCC[C@@H](C2=O)N(C)C(=O)CN(C)C(=O)[C@H]([C@@H](C)CC)NC(=O)[C@H](CC)N(C)C(=O)C[C@H]1C(=O)N(C)C [PP0644] |  |  | NRAS/KRAS (ratio of KD value with respect to NRAS to KD value with respect to KRAS) [1]: C (A compound having a KD ratio of 0.1 or more and less than 3 is denoted as C); HRAS/KRAS (ratio of KD value with respect to HRAS to KD value with respect to KRAS) [2]: B (a compound having 3 or more and less than 10 is denoted as B)
12 | CCO[C@@H]1C[C@H]2C(=O)NC3(CCC3)C(=O)N(C)[C@@H](C3CCCC3)C(=O)N(C)[C@H](C(=O)N(C)C)CC(=O)N(C)[C@@H](CC)C(=O)N[C@@H]([C@@H](C)CC)C(=O)N(C)CC(=O)N(C)[C@H]3CCCCCN(C3=O)[C@@H](Cc3ccc4ccsc4c3)C(=O)N(C)CC(=O)N[C@@H](CCc3cc(F)c(C(F)(F)F)c(F)c3)C(=O)N2C1 [PP0910] | B (a compound having 3 or more and less than 10 is denoted as B) | B (a compound having 3 or more and less than 10 is denoted as B) | 
13 | CCC[C@H]1C(=O)N[C@@H]([C@@H](C)CC)C(=O)N(C)CC(=O)N(C)[C@H]2C/C=C\CCN(C2=O)[C@@H](Cc2ccc(C)cc2)C(=O)N(C)CC(=O)N[C@@H](CCc2ccc(C(F)(F)F)c(OC)c2)C(=O)N2C[C@H](OCC)C[C@H]2C(=O)NC2(CC(C)(C)C2)C(=O)N(C)[C@@H](CC(C)C)C(=O)N(C)[C@H](C(=O)N(C)C)CC(=O)N1C [PP3008] | A (a compound having 10 or more and less than 20 is denoted as A) | A (a compound having 10 or more and less than 20 is denoted as A) | 
14 | CCO[C@@H]1C[C@H]2C(=O)NC3(CC(C)(C)C3)C(=O)N(C)[C@@H](C3CCCC3)C(=O)N(C)[C@H](C(=O)N(C)CC)CC(=O)N(C)[C@H]3CC/C=C/c4ccc(cc4)C[C@@H](C(=O)N(C)CC(=O)N[C@@H](CCc4ccc(Cl)c(Cl)c4)C(=O)N2C1)N1CC/C=C\C[C@@H](C1=O)N(C)C(=O)CN(C1CC1)C(=O)[C@H]([C@@H](C)CC)NC3=O [PP2598] |  |  | NRAS/KRAS (ratio of KD value with respect to GDP-bound NRAS wild-type protein to KD value with respect to KRAS) [1]: A (a compound having 10 or more and less than 20 is denoted as A); HRAS/KRAS (ratio of KD value with respect to GDP-bound HRAS wild-type protein to KD value with respect to KRAS) [2]: A (a compound having 10 or more and less than 20 is denoted as A)
15 | CC[C@H](C)[C@@H]1NC(=O)[C@H](CC(C)C)N(C)C(=O)C[C@@H](C(=O)N2CCOCC2)N(C)C(=O)[C@H](C2CCCC2)N(C)C(=O)C2(CCCC2)NC(=O)[C@@H]2C[C@@H](OC3CCCCO3)CN2C(=O)[C@H](CCc2ccc(C(F)(F)F)c(Cl)c2)NC(=O)CN(C)C(=O)[C@H](Cc2ccc(C)cc2)N(CC)C(=O)[C@@H]2CCN2C(=O)[C@H](C)N(C)C1=O (stereo partly drawn) [PP0067] ([NMeL]I[NMeA][Aze][NEtPhe(4-Me)][Sar][hPhe(3-Cl-4-CF3)][Hyp](X51)[Ac5c][NMeGly(cPent)][NMeD]-Morpholide; lactam N-11) | C (A compound having a KD ratio of 0.1 or more and less than 3 is denoted as C) | C (A compound having a KD ratio of 0.1 or more and less than 3 is denoted as C) | 
